Measured values published in the supplement of paper PMC5908809.

Experiments:
Test in all cases: relative IC50 (inflection point of fitted viability curve, relative to fitted max inhibition); higher = less sensitive
Settings in all cases: 72 h
NK-92 (IL-2 2.5 ng/mL) = tested on: NK-92 (IL-2 2.5 ng/mL)
Procedure: (§1)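 Drug sensitivity and resistance testing: 5 concentrations over a 10,000-fold range, 72 h at 37 °C, viability by CellTiter-Glo normalised to DMSO and benzethonium chloride controls. IC50 is the inflection point of a logistic fit (min fixed at 0, max fitted), so it is relative to the fitted maximal inhibition. Kept only where fitted max inhibition is at least 50%.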

YT (IL-2 2.5 ng/mL) = tested on: YT (IL-2 2.5 ng/mL)
Procedure: as §1

NK-YS (IL-2 2.5 ng/mL) = tested on: NK-YS (IL-2 2.5 ng/mL)
Procedure: as §1

KHYG-1 (IL-2 2.5 ng/mL) = tested on: KHYG-1 (IL-2 2.5 ng/mL)
Procedure: as §1

SNK-6 (IL-2 2.5 ng/mL) = tested on: SNK-6 (IL-2 2.5 ng/mL)
Procedure: as §1

NKL (IL-2 2.5 ng/mL) = tested on: NKL (IL-2 2.5 ng/mL)
Procedure: as §1

IMC-1 (IL-2 20 ng/mL) = tested on: IMC-1 (IL-2 20 ng/mL)
Procedure: as §1

DERL-7 (IL-2 2.5 ng/mL) = tested on: DERL-7 (IL-2 2.5 ng/mL)
Procedure: as §1

KAI3 (IL-2 2.5 ng/mL) = tested on: KAI3 (IL-2 2.5 ng/mL)
Procedure: as §1

SMILES	relative IC50 (NK-92 (IL-2 2.5 ng/mL))	relative IC50 (YT (IL-2 2.5 ng/mL))	relative IC50 (NK-YS (IL-2 2.5 ng/mL))	relative IC50 (KHYG-1 (IL-2 2.5 ng/mL))	relative IC50 (SNK-6 (IL-2 2.5 ng/mL))	relative IC50 (NKL (IL-2 2.5 ng/mL))	relative IC50 (IMC-1 (IL-2 20 ng/mL))	relative IC50 (DERL-7 (IL-2 2.5 ng/mL))	relative IC50 (KAI3 (IL-2 2.5 ng/mL))
CNC(=O)c1cccc2cc(Oc3ccnc4cc(OCC5(N)CC5)c(OC)cc34)ccc12 [Lucitanib]	1910 nM	3440 nM	2000 nM	2000 nM	3720 nM	–	–	–	–
N#CC(c1ccnc(OCc2ccc(CN3CCOCC3)cc2)n1)c1nc2ccccc2s1 (configuration not stated) [Bentamapimod]	–	1590 nM	–	1690 nM	–	1810 nM	2230 nM	1440 nM	–
Cc1cc(C(=O)NOCCO)c(Nc2ccc(I)cc2F)n(C)c1=O [AZD-8330]	> 10000 nM	–	–	13 nM	> 10000 nM	10.2 nM	–	–	–
S=P(N1CC1)(N1CC1)N1CC1 [Thio-TEPA]	–	–	–	–	–	4100 nM	–	–	4010 nM
OC[C@H]1O[C@@H](n2cnc3c2N=CNC[C@H]3O)C[C@@H]1O [Pentostatin]	–	–	–	–	–	> 10000 nM	–	–	> 10000 nM
COc1cc(Nc2ncc3c(n2)-c2ccc(Cl)cc2C(c2c(F)cccc2OC)=NC3)ccc1C(=O)O [Alisertib]	41.3 nM	91.9 nM	22 nM	50.5 nM	39.5 nM	52.5 nM	116 nM	28.2 nM	116 nM
COc1ncc(-c2ccc3nccc(-c4ccnnc4)c3c2)cc1NS(=O)(=O)c1ccc(F)cc1F [Omipalisib]	11.2 nM	29 nM	39.5 nM	114 nM	101 nM	57.5 nM	–	11.1 nM	11.4 nM
Oc1ncc(N(CCCl)CCCl)c(O)n1 [Uracil mustard]	–	–	–	–	> 10000 nM	–	–	–	–
CN(C)c1nc(N(C)C)nc(N(C)C)n1 [Altretamine]	> 10000 nM	> 10000 nM	–	> 10000 nM	–	–	–	–	–
CCCOc1ccn2c(C(C)=O)cc(-c3ccccc3S(C)(=O)=O)c2c1 [GSK2801]	–	–	–	–	–	–	> 10000 nM	–	–
Cn1c(=O)c(F)c(Nc2ccc(I)cc2F)c2c(=O)n(C[C@@H](O)CO)cnc21 [TAK-733]	–	–	–	22.5 nM	–	12.6 nM	–	–	–
COc1cc2c(cc1O)CC[C@@H]1[C@@H]2CC[C@]2(C)[C@@H](O)CC[C@@H]12 [2-methoxyestradiol]	153 nM	373 nM	260 nM	319 nM	263 nM	243 nM	791 nM	589 nM	442 nM
CO[C@H]1C[C@@H]2CC[C@@H](C)[C@@](O)(O2)C(=O)C(=O)N2CCCC[C@H]2C(=O)O[C@H]([C@H](C)C[C@@H]2CC[C@@H](OC(=O)C(C)(CO)CO)[C@H](OC)C2)CC(=O)[C@H](C)/C=C(\C)[C@@H](O)[C@@H](OC)C(=O)[C@H](C)C[C@H](C)/C=C/C=C/C=C/1C [Temsirolimus]	–	0.61 nM	0.31 nM	1.32 nM	0.26 nM	0.09 nM	–	0.57 nM	0.5 nM
O=S(=O)(c1cccc2c(O)nccc12)N1CCCNCC1 [Hydroxyfasudil]	–	–	–	–	9460 nM	–	–	–	–
CCc1nc(-c2cccc(C)c2)c(-c2ccnc(NC(=O)c3ccccc3)c2)s1 [TAK-715]	2170 nM	–	1570 nM	–	3250 nM	–	–	–	–
CCN1CCN(c2ccc(Nc3cc(N(C)C(=O)Nc4c(Cl)c(OC)cc(OC)c4Cl)ncn3)cc2)CC1 [NVP-BGJ398]	–	–	–	–	> 1000 nM	–	–	–	–
CCN1CCN(Cc2ccc(-c3cc4c(N[C@H](C)c5ccccc5)ncnc4[nH]3)cc2)CC1 [NVP-AEE788]	374 nM	–	–	–	–	–	–	–	–
CS(=O)(=O)CCNCc1ccc(-c2ccc3ncnc(Nc4ccc(OCc5cccc(F)c5)c(Cl)c4)c3c2)o1 [Lapatinib]	–	–	–	–	> 1000 nM	–	–	–	–
C#Cc1cccc(Nc2ncnc3cc4c(cc23)OCCOCCOCCO4)c1 [Icotinib]	1970 nM	–	–	–	–	–	–	–	–
O=C(c1ccc(F)c(F)c1Nc1ccc(I)cc1F)N1CC(O)([C@@H]2CCCCN2)C1 [Cobimetinib]	–	–	–	123 nM	> 1000 nM	51.6 nM	–	–	–
COc1cc(F)c(F)c(Nc2ccc(I)cc2F)c1NS(=O)(=O)C1(C[C@H](O)CO)CC1 [Refametinib]	–	–	–	147 nM	–	91.9 nM	–	194 nM	–
